Measured values as given in patent publication US7179842B2, “Method of treating non-insulin dependent diabetes mellitus with phytanic acid derivatives” (priority 2000, dated 2007).
Read-outs that look alike come from different tables or passages of the source. Values belong to the compound of their own block, whether it stands above or below them.

Tests used:
RXR [1] = conditions: cited from earlier work
[2] = target: all-trans-retinoic acid receptor (RAR); conditions: cited from earlier work
GLUT-1 mRNA = assay: Quantitative RT-PCR (TaqMan) mRNA level, GLUT-1; type: cell-based, rat; conditions: for GLUT-1 mRNA levels / GLUT-1 mRNA induction: 24 h
Experimental: (§1) The data is presented as means of 3 independent experiments.
(§2) For the quantification of the expression levels the novel Real Time Quantitative TaqMan™ PCR using the multiplex method was employed. Total RNA was isolated using the RNeasy kit from QIAGEN (Valencia, Calif.). The first strand cDNA was synthesized in a 20 μl reaction from 5 μg total RNA by reverse transcription with the. […] Subsequently the cDNA was diluted to 500 μl. In a 50 μl reaction, 10 μl cDNA was amplified in the 7700 Sequence Detector (PE Biosystems, Foster City, Calif.), using the Universal Master Mix (PE Biosystems, Foster City, Calif.) and the following PCR-primers and TaqMan™-probes at the concentrations of 300 nM and 100 nM, respectively, and PCR-primers and TaqMan™-probes for the reference gene β-actin at concentration of 50 nM.
(§3) The induction of gene expression, and corresponding error bars were calculated from 3 independent experiments using the ΔCT method according to the manufacturer's protocol.

GLUT-2 mRNA = assay: Quantitative RT-PCR (TaqMan) mRNA level, GLUT-2; type: cell-based, rat; conditions: 24 h
Experimental: as §1, §2, §3

glucokinase mRNA = assay: Quantitative RT-PCR (TaqMan) mRNA level, glucokinase; type: cell-based, rat; conditions: 100 μM, 24 h
Experimental: as §1, §2, §3

PEPCK mRNA = assay: Quantitative RT-PCR (TaqMan) mRNA level, PEPCK; type: cell-based, rat
Experimental: as §1, §2, §3

Rat primary hepatocytes [3] = assay: [3H]-2-deoxy-D-glucose uptake in hepatocytes; type: cell-based; conditions: 24 h treatment
Experimental: Rat primary hepatocytes were cultured for 24 h at 37° C. in media containing phytanic acid 10 μM (□) and 100 μM (▪), palmitic acid 100 μM ( ), DHA 100 μM (∘), and control (▴). Subsequently [3H]-2-deoxy-D-glucose uptake was measured after 15, 30, and 60 min incubation period.
Cells cultured in 24-well plates were treated for 24 h with phytanic acid, palmitic acid, and DHA. Subsequently the medium was removed and cells were washed twice with pre-warmed phosphate buffered saline, pH 7.4 (PBS). 500 μl of pre-warmed glucose reaction mixture (0.01 mM 2-deoxy-D-glucose and 3 μCi/ml [3H]-2-deoxy-D-glucose in PBS) was then added to the cells. The reaction mixture was further incubated at 37° C. for different time intervals. The reaction was terminated by aspirating the reaction mixture and washing the cells twice with ice cold 10 mM 2-deoxy-D-glucose in PBS. Cells were then solubilized with 500 μl of 1% sodium dodecyl sulfate, 400 μl of which was transferred to scintillation vials containing 5 ml Quickszint 1 (Zinsser Analytic, Frankfurt, Germany). Radioactivity was counted in a Tri-Carb 2500 (Packard, Meriden, Conn.) liquid scintillation counter. The remaining lysate was used for protein content determination with the BCA Protein Assay Reagent Kit (Pierce, Rockford, Ill.). Data are expressed as means±SD from 3 independent experiments.

[4] = system: cytochrome P450/4A1 (Cyp4al) mRNA; assay: Quantitative RT-PCR (TaqMan) mRNA level, Cyp4a1; type: cell-based, rat; conditions: 10 μM for 24 h
Experimental: (§4) The mRNA levels were determined with the TaqMan™ methodology after a 24 h stimulation of the rat primary hepatocytes with 10 μM phytanic acid, palmitic acid, and DHA. mRNA levels were normalized to β-actin expression and expressed relative to untreated cells. The data is presented as means of 3 independent experiments. Error bars were calculated as described in Example 3.
(§5) For the quantification of the expression levels the novel Real Time Quantitative TaqMan™ PCR using the multiplex method was employed. Total RNA was isolated using the RNeasy kit from QIAGEN (Valencia, Calif.). The first strand cDNA was synthesized in a 20 μl reaction from 5 μg total RNA by reverse transcription with the. SuperScriptII™ Reverse Transcriptase Kit (Life Technologies Inc., Coralville Iowa) and 100 ng random hexamers, as previously described (Zimmermann, U., Fluehmann, B., Born, W., Fischer, J., A. & Muff, R. (1997) Coexistence of Novel Amylin-Binding Sites With Calcitonin Receptors in Human Breast Carcinoma Mcf-7 Cells, Journal of Endocrinology. 155, 423–431). Subsequently the cDNA was diluted to 500 μl. […]
as §3

HMG-CoA reductase mRNA = assay: Quantitative RT-PCR (TaqMan) mRNA level, HMG-CoA reductase; type: cell-based, rat; conditions: 10 μM for 24 h
Experimental: as §4, §5, §3

[5] = system: lipoprotein lipase (LPL) mRNA; assay: Quantitative RT-PCR (TaqMan) mRNA level, LPL; type: cell-based, rat; conditions: 10 μM for 24 h
Experimental: as §4, §5, §3

[6] = system: low-density lipoprotein receptor (LDLR) mRNA; assay: Quantitative RT-PCR (TaqMan) mRNA level, LDLR; type: cell-based, rat; conditions: 10 μM for 24 h
Experimental: as §4, §5, §3

[7] = system: tumor necrosis factor α (TNFα) mRNA; assay: Quantitative RT-PCR (TaqMan) mRNA level, TNFα; type: cell-based, rat; conditions: 10 μM for 24 h
Experimental: as §4, §5, §3

[8] = system: apolipoprotein A1 (ApoA1) mRNA; assay: Quantitative RT-PCR (TaqMan) mRNA level, ApoA1; type: cell-based, rat; conditions: 10 μM for 24 h
Experimental: as §4, §5, §3

[9] = system: apolipoprotein E (ApoE) mRNA; assay: Quantitative RT-PCR (TaqMan) mRNA level, ApoE; type: cell-based, rat; conditions: 10 μM for 24 h
Experimental: as §4, §5, §3

[10] = system: liver fatty acid binding protein (LFABP) mRNA; assay: Quantitative RT-PCR (TaqMan) mRNA level, LFABP; type: cell-based, rat; conditions: 10 μM for 24 h
Experimental: as §4, §5, §3

plasma insulin = assay: In vivo study, plasma insulin in rats fed phytanic acid; parameters: species or system male Wistar rats; conditions: 150 and 750 mg phytanic acid/kg feed, day 7, vs control chow
Experimental: Male Wistar rats were adapted for two days and then fed with the respective substance. The values are means±SD (see Example 4).
To determine the beneficial effect of phytanic acid on plasma insulin levels, a study was performed using male Wistar rats. The animals were adapted for two days and then fed with control chow, 150 mg phytanic acid/kg feed (P-10), and 750 mg phytanic acid/kg feed (P-50), respectively. Blood samples were taken at day 7 and the insulin concentration in the plasma was measured (FIG. 7).

Rat primary hepatocytes [11] = conditions: 24 h, 1 mM
RXR [12] = conditions: read-out: RXR receptor binding IC50; cited from earlier work
PPARα = target: T1, PPARα (Homo sapiens, UniProt Q07869); conditions: read-out: Kd-value as PPARα ligand; cited from earlier work
T1 sequence (Q07869 1-468): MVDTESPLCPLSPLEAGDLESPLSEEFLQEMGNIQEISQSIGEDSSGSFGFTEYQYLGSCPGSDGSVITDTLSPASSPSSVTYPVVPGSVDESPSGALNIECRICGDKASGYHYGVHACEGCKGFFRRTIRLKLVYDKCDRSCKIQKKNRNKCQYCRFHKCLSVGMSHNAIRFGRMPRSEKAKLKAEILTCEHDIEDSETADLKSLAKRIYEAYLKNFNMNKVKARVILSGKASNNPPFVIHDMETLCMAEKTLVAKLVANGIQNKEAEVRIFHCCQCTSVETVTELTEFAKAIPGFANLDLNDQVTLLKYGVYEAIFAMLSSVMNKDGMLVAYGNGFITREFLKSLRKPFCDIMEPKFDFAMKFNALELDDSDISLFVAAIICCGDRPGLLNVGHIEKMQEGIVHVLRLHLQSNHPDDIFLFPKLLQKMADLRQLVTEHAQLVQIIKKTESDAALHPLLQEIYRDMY

[13] = adult mice, 0.5% phytol diet for 21 days; cited from earlier work
[14] = cited from earlier work
[15] = concentrations lower than 100 μM

SMILES: CC1=C(/C=C/C(C)=C\C=C\C(C)=C\C(=O)O)C(C)(C)CCC1 [9-cis-retinoic acid, reference compound]
EC50 ([2]; read-out: RAR activation EC50): 13 nM

SMILES: CC/C=C\C/C=C\C/C=C\C/C=C\C/C=C\C/C=C\CCC(=O)O [DHA, docohexaenoic acid, reference compound]
GLUT-1 mRNA levels (GLUT-1 mRNA; concentrations up to 100 μM): did not affect
GLUT-2 mRNA levels (GLUT-2 mRNA): did not affect
transcription of glucokinase mRNA (glucokinase mRNA): reduced
transcription of PEPCK mRNA (PEPCK mRNA; 100 μM, 24 h): reduced

transcription of glucokinase mRNA (glucokinase mRNA): reduced
SMILES: CCCCCCCCCCCCCCCC(=O)O [palmitic acid, reference compound]
GLUT-1 mRNA induction (GLUT-1 mRNA; 100 μM): 2.4 (1.7–3.3) fold
GLUT-1 mRNA levels (GLUT-1 mRNA; [15]): did not affect
GLUT-2 mRNA levels (GLUT-2 mRNA; low concentrations): minor induction
transcription of PEPCK mRNA (PEPCK mRNA; 100 μM, 24 h): reduced

SMILES: CC(C)CCCC(C)CCCC(C)CCCC(C)CC(=O)O (stereo not shown) [phytanic acid]
2-deoxy-D-glucose uptake vs control, palmitic acid or DHA (Rat primary hepatocytes [3]; 100 μM, uptake over 15, 30, 60 min): substantial increase
2-deoxy-D-glucose uptake (Rat primary hepatocytes [3]; [15]): no measurable effect
GLUT-1 mRNA induction (GLUT-1 mRNA; 100 μM): 2.2 (1.6–2.9) fold
GLUT-1 mRNA maximal induction (GLUT-1 mRNA; 100 μM, after 6 hours, normalized to β-actin, relative to untreated): 5.6 (5.1–6.2) fold
GLUT-1 mRNA levels (GLUT-1 mRNA; [15]): did not affect
GLUT-2 mRNA maximal induction (GLUT-2 mRNA; 100 μM): 3.2 (2.7–3.8) fold
GLUT-2 mRNA induction (GLUT-2 mRNA; 0.01–100 μM): at least 2 fold
glucokinase mRNA induction (glucokinase mRNA): 3.0 (2.5–3.4) fold
PEPCK transcript (PEPCK mRNA; 10 μM for 24 h): increase
PEPCK mRNA induction (PEPCK mRNA; 100 μM, 24 h): 2.5 (1.7–3.6) fold
PEPCK mRNA maximal induction (PEPCK mRNA; 100 μM, after 6 hours): 4.4 (3.4–5.7) fold
Cyp4a1 transcript [4]: increase
HMG-CoA reductase transcript (HMG-CoA reductase mRNA): increase
LPL transcript [5]: increase
LDLR transcript [6]: increase
TNFα transcript [7]: increase
ApoA1 mRNA [8]: downregulated
ApoE mRNA [9]: downregulated
LFABP mRNA levels [10]: remained unaffected
plasma insulin (plasma insulin): could reduce the plasma insulin
cells survived compared to untreated (Rat primary hepatocytes [11]): 54±17%
IC50 (RXR [12]): 2300 nM
EC50 (RXR [1]; read-out: RXR transcriptional effects EC50): 3000 nM
activity on retinoid receptors (RXR vs RAR) [2]: restricted to RXR receptors
Kd (PPARα): 10 nM

SMILES: C/C(=C\CO)CCC[C@H](C)CCC[C@H](C)CCCC(C)C [phytol]
cholesterol serum levels [13]: remained unaffected
decrease in triglyceride serum levels [13]: 40%
intestinal absorption from dietary chlorophyll ([14]; rat and man): minimal
absorption compared with phytanic acid ([14]; rats): much less well adsorbed than phytanic acid
